pEC50, pIC50: −log10 of the molar value. Like-named read-outs stand apart in the source and are kept apart here.
What was measured:
[1] = target: influenza virus vRNPs reconstituted in HEK293T cells (Influenza A virus, UniProt P03433); assay: vRNP reconstitution assay in HEK293T cells; type: cell-based
[2] = system: influenza A virus (strain A/PR/8/34); assay: microbe, parasite or virus in culture; type: cell-based; details: for EC90 / EC99: Influenza A virus, 24 h; for EC90: read-out: Virus yield assay Antiviral activity EC90; for EC99: read-out: Virus yield assay Antiviral activity EC99
in vitro [3] = details: human, vRNP reconstitution assay Cytotoxicity CC50
in vitro [4] = details: dog
[5] = system: untransfected HEK293T cells; details: human, 24 h, 200 μM
[6] = system: influenza virus endonuclease; details: read-out: IC50 in enzymatic assays; cited from earlier work
[7] = MTS cell viability assay in untransfected HEK293T cells; details: human, vRNP reconstitution assay Cytotoxicity CC50, untransfected HEK293T cells
[8] = MTS cell viability assay in uninfected MDCK cells; details: dog
[9] = read-out: vRNP reconstitution assay Activity EC50
[10] = PR/8, 1-log10 reduction in virus titer, qPCR, MDCK cells
[11] = PR/8, 2-log10 reduction in virus titer, qPCR, MDCK cells

Compound: COc1ccc(O)c(/C=N/NC(=O)c2cc(O)c(O)c(O)c2)c1 [Compound 16]
- pEC50 [1, 9]: 5.28
- EC90 [2, 10]: 28 µM
- EC99 [2, 11]: 67 µM
- SI (selectivity index, ratio between CC50 and EC90) ([2]; MDCK cells): >7.1
- CC50 at 24 h (in vitro [3]): > 200 µM
- CC50 at 24 h (in vitro [4]): > 200 µM

Compound: O=C(N/N=C/c1ccc(O)cc1O)c1cc(O)c(O)c(O)c1 [Compound 17]
- pEC50 [1, 9]: 5.15
- EC90 [2, 10]: 8.1 µM
- EC99 [2, 11]: 21 µM
- SI (selectivity index, ratio between CC50 and EC90) ([2]; MDCK cells): >25
- CC50 at 24 h (in vitro [3]): > 200 µM
- CC50 at 24 h (in vitro [4]): > 200 µM

Compound: O=C(N/N=C/c1cccc(O)c1O)c1cc(O)c(O)c(O)c1 [Compound 18]
- pEC50 [1, 9]: 5.48
- EC90 [2, 10]: 2.2 µM
- EC99 [2, 11]: 6.2 µM
- SI (selectivity index, ratio between CC50 and EC90) ([2]; MDCK cells): >91
- CC50 at 24 h (in vitro [3]): > 200 µM
- cytotoxicity in the vRNP assay [5]: not cytotoxic at 200 μM
- CC50 at 24 h (in vitro [4]): > 200 µM

Compound: COc1cccc(/C=N/NC(=O)c2cc(O)c(O)c(O)c2)c1O [Compound 19]
- pEC50 [1, 9]: 5.24
- EC90 [2, 10]: 26 µM
- EC99 [2, 11]: 53 µM
- SI (selectivity index, ratio between CC50 and EC90) ([2]; MDCK cells): >7.7
- CC50 at 24 h (in vitro [3]): > 200 µM
- cytotoxicity in the vRNP assay [5]: not cytotoxic at 200 μM
- CC50 at 24 h (in vitro [4]): > 200 µM

Compound: O=C(N/N=C/c1ccc(O)c(O)c1O)c1cc(O)c(O)c(O)c1 [Compound 20]
- pEC50 [1, 9]: 5.66
- EC90 [2, 10]: 11 µM
- EC99 [2, 11]: 35 µM
- SI (selectivity index, ratio between CC50 and EC90) ([2]; MDCK cells): >18
- CC50 at 24 h (in vitro [3]): > 200 µM
- CC50 at 24 h (in vitro [4]): > 200 µM

Compound: O=C(N/N=C/c1cc(O)c(O)cc1O)c1cc(O)c(O)c(O)c1 [Compound 21]
- pEC50 [1, 9]: 5.60
- EC90 [2, 10]: 3.6 µM
- EC99 [2, 11]: 8.3 µM
- SI (selectivity index, ratio between CC50 and EC90) ([2]; MDCK cells): >56
- CC50 at 24 h (in vitro [3]): > 200 µM
- CC50 at 24 h (in vitro [4]): > 200 µM

Compound: O=C(N/N=C/c1c(O)cc(O)cc1O)c1cc(O)c(O)c(O)c1 [Compound 22]
- difference between EC50 in the vRNP assay and EC90 in the virus yield assay [1]: ≥ 8 fold
- pEC50 [1, 9]: 6.38
- EC90 [2, 10]: 3.4 µM
- EC99 [2, 11]: 7.4 µM
- SI (selectivity index, ratio between CC50 and EC90) ([2]; MDCK cells): >59
- CC50 at 24 h (in vitro [3]): > 200 µM
- CC50 at 24 h (in vitro [4]): > 200 µM

Compound: O=C(N/N=C/c1cc(O)c(O)c(O)c1)c1cc(O)c(O)c(O)c1 [Compound 23]
- pEC50 [1, 9]: 5.51
- EC90 [2, 10]: 3.5 µM
- EC99 [2, 11]: 11 µM
- SI (selectivity index, ratio between CC50 and EC90) ([2]; MDCK cells): >57
- CC50 at 24 h (in vitro [3]): > 200 µM
- CC50 at 24 h (in vitro [4]): > 200 µM

Compound: O=C(N/N=C/c1ccccn1)c1cc(O)c(O)c(O)c1 [Compound 24]
- pEC50 [1, 9]: 4.60
- EC90 [2, 10]: 26 µM
- EC99 [2, 11]: 58 µM
- SI (selectivity index, ratio between CC50 and EC90) ([2]; MDCK cells): >7.7
- CC50 at 24 h (in vitro [3]): > 200 µM
- CC50 at 24 h (in vitro [4]): > 200 µM

Compound: O=C(N/N=C/c1ccc[nH]1)c1cc(O)c(O)c(O)c1 [Compound 25]
- difference between EC50 in the vRNP assay and EC90 in the virus yield assay [1]: ≥ 8 fold
- pEC50 [1, 9]: 5.39
- EC90 [2, 10]: 70 µM
- EC99 [2, 11]: 132 µM
- SI (selectivity index, ratio between CC50 and EC90) ([2]; MDCK cells): >2.9
- CC50 at 24 h (in vitro [3]): > 200 µM
- CC50 at 24 h (in vitro [4]): > 200 µM

Compound: O=C(O)c1ccc(-c2cccc(/C=N/NC(=O)c3cc(O)c(O)c(O)c3)c2)cc1 [Compound 26]
- pEC50 [1, 9]: 5.26
- EC90 [2, 10]: 13 µM
- EC99 [2, 11]: 36 µM
- SI (selectivity index, ratio between CC50 and EC90) ([2]; MDCK cells): >15
- CC50 at 24 h (in vitro [3]): > 200 µM
- CC50 at 24 h (in vitro [4]): > 200 µM

Compound: NC(=O)N/N=C/c1cc(O)c(O)c(O)c1 [Compound 27]
- pEC50 [1, 9]: 4.68
- CC50 at 24 h (in vitro [3]): > 200 µM

Compound: NNC(=O)c1cc(O)c(O)c(O)c1 [Compound 28, 3,4,5-trihydroxybenzohydrazide]
- difference between EC50 in the vRNP assay and EC90 in the virus yield assay [1]: ≥ 8 fold
- pEC50 [1, 9]: 5.14
- EC90 [2, 10]: 85 µM
- EC99 [2, 11]: 158 µM
- SI (selectivity index, ratio between CC50 and EC90) ([2]; MDCK cells): >2.4
- CC50 at 24 h (in vitro [3]): > 200 µM
- CC50 at 24 h (in vitro [4]): > 200 µM

Compound: O=C(O[C@@H]1Cc2c(O)cc(O)cc2O[C@@H]1c1cc(O)c(O)c(O)c1)c1cc(O)c(O)c(O)c1 [EGCG, epigallocatechin-3-gallate]
- pIC50 [6]: 5.72

Compound: CC(C)/C=C1\N=C(CC(C)C)C(=O)N(O)C1=O [Flutimide]
- pIC50 [6]: 5.26

Compound: NC(=O)c1ncn([C@@H]2O[C@H](CO)[C@@H](O)[C@H]2O)n1 [Ribavirin, reference compound]
- CC50 at 24 h [7]: > 200 µM
- pEC50 [1]: 5.03
- EC90 ([2]; PR/8, MDCK): 8.5 µM
- EC99 ([2]; PR/8, MDCK): 13 µM
- CC50 at 24 h [8]: > 200 µM

From PMC4980666, “N-acylhydrazone inhibitors of influenza virus PA endonuclease with versatile metal binding modes” (Scientific Reports, 2016)
